Test results reported in patent US7759345B2, “Antitumoral derivatives of ET-743” (priority 2001, dated 2010).
Like-named read-outs stand apart in the source and are kept apart here.

Legend:
P-388 = assay: Inhibition of cell growth by counting cells, P-388; type: cell-based, mouse; conditions: Mus musculus, P388, 72 h; three days of incubation; read-out: IC50 (molar) P-388
In short: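 IC50 is the sample concentration halving growth, taken from dose-response curves of cell counts (Coulter counter, duplicate wells) relative to drug-free cultures. P-388 (DBA/2 mouse lymphoid neoplasm) cells plated at 1×10^4 per well in EMEM with 5% FCS plus test sample.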

A-549 [1] = assay: Inhibition of cell growth by counting cells, A-549; type: cell-based, human; conditions: Homo sapiens, A549, 72 h; three days of incubation; read-out: IC50 (molar) A-549
In short: (§1)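 1×10^4 cells/well, EMEM 5% FCS + test sample at several concs, duplicates; 3 d, 37° C, 5% CO2, humidified. Trypsinize, Coulter count; % growth vs untreated wells; IC50 from dose-response curve.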

MEL-28 = assay: Inhibition of cell growth by counting cells, MEL-28; type: cell-based, human; conditions: Homo sapiens, SK-MEL-28, 72 h; three days of incubation; read-out: IC50 (molar) MEL-28
In short: as §1

HT-29 [2] = assay: Inhibition of cell growth by counting cells, HT-29; type: cell-based, human; conditions: Homo sapiens, HT-29, 72 h; three days of incubation; read-out: IC50 (molar) HT-29
In short: as §1

IGROV-ET = assay: Inhibition of cells growth by colorimetric assay (SRB), IGROV-ET; type: cell-based; conditions: IGROV-ET, SRB, 48 hours exposure
In short: (§2)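 Growth inhibition is measured by sulforhodamine B staining of TCA-fixed cells after 48 h of compound exposure across 10 to 10^−8 μg/ml. Cells are seeded at 5×10^3 per well and grown drug-free for 18 h beforehand; absorbance at 490 nm yields GI, TGI and LC values.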

LNCaP = assay: Inhibition of cells growth by colorimetric assay (SRB), LNCaP; type: cell-based; conditions: LNCAP, SRB, 48 hours exposure
In short: as §2

IGROV-1 = assay: Inhibition of cells growth by colorimetric assay (SRB), IGROV-1; type: cell-based; conditions: IGROV, SRB, 48 hours exposure
In short: as §2

DU-145 = assay: Inhibition of cells growth by colorimetric assay (SRB), DU-145; type: cell-based; conditions: DU-145, SRB, 48 hours exposure
In short: as §2

A-549 [3] = assay: Inhibition of cells growth by colorimetric assay (SRB), A-549; type: cell-based; conditions: SRB, 48 hours exposure
In short: as §2

PANC-1 = assay: Inhibition of cells growth by colorimetric assay (SRB), PANC-1; type: cell-based; conditions: PANC-1, SRB, 48 hours exposure
In short: as §2

SK-BR-3 = assay: Inhibition of cells growth by colorimetric assay (SRB), SK-BR-3; type: cell-based; conditions: SK-BR3, SRB, 48 hours exposure
In short: as §2

LoVo = assay: Inhibition of cells growth by colorimetric assay (SRB), LoVo; type: cell-based; conditions: LOVO, SRB, 48 hours exposure
In short: as §2

HMEC1 = assay: Inhibition of cells growth by colorimetric assay (SRB), HMEC1; type: cell-based; conditions: HMEC-1, SRB, 48 hours exposure
In short: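 Using sulforhodamine B, cell growth and viability are quantified after a 48 h drug exposure of cells maintained in RPMI 1640/10% FBS at 37 °C, 5% CO2. Concentrations span 10 to 10^−8 μg/ml; optical density is read at 490 nm.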

SK-OV-3 = assay: Inhibition of cells growth by colorimetric assay (SRB), SK-OV-3; type: cell-based; conditions: SK-OV3, SRB, 48 hours exposure
In short: as §2

SK-MEL-28 = assay: Inhibition of cells growth by colorimetric assay (SRB), SK-MEL-28; type: cell-based; conditions: MEL-28, SRB, 48 hours exposure
In short: as §2

HT-29 [4] = assay: Inhibition of cells growth by colorimetric assay (SRB), HT-29; type: cell-based; conditions: SRB, 48 hours exposure; for HT-29 TGI / GI50: HT-29; for GI50: read-out: HT-29 GI50; for LC50 (concentration for 50% cell killing): read-out: HT-29 LC50, HT-29
In short: as §2

LoVo-Dox = assay: Inhibition of cells growth by colorimetric assay (SRB), LoVo-Dox; type: cell-based; conditions: LOVO-DOX, SRB, 48 hours exposure
In short: as §2

K-562 = assay: Inhibition of cells growth by colorimetric assay (SRB), K-562; type: cell-based; conditions: K-562, SRB, 48 hours exposure
In short: as §2

[5] = Homo sapiens, A549, 48 h, A-549, read-out: A-549 GI50
[6] = Homo sapiens, A549, 48 h, read-out: A-549 LC50, A-549

Source text for Heart: (§3) Toxicity was asssessed by the methods reported in Toxicology in Vitro, 15 (2001) 571-577, J. Luber Narod et al.: “Evaluation of the use of in vitro methodolodies as tools for screening new compounds for potential in vivo toxicity”.
Source text for Kidney: as §3
Source text for Liver: as §3
Source text for Myelo: as §3
Source text for Skeletal: as §3

COc1cc2c(cc1OC(C)=O)CCN[C@]21CS[C@@H]2c3c(OC(C)=O)c(C)c4c(c3[C@H](COC1=O)N1C2[C@H]2c3c(cc(C)c(OC)c3O)C[C@@H]([C@@H]1O)N2C)OCO4 (some centres unmarked) [Compound 57]
Toxicity Data Kidney (Kidney): 3.35E-09 | IC50 (P-388): 0.149 nM | Toxicity Data Heart (Heart): 3.48E-09 | Toxicity Data Liver (Liver): 4.66E-09 | Toxicity Data Myelo (Myelo): 1.85E-08 | IC50 (A-549 [1]): 0.149 nM | IC50 (MEL-28): 0.149 nM | IC50 (HT-29 [2]): 0.149 nM

COc1cc2c(cc1OC(=O)Cc1cc(=O)oc3cc(N(C)C)ccc13)CCN[C@]21CS[C@@H]2c3c(OC(C)=O)c(C)c4c(c3[C@H](COC1=O)N1C2[C@H]2c3c(cc(C)c(OC)c3OC(=O)Cc3cc(=O)oc5cc(N(C)C)ccc35)C[C@@H]([C@@H]1O)N2C)OCO4 (some centres unmarked) [Compound 78]
IGROV-ET TGI (IGROV-ET): 7.42E-07 | GI50 (IGROV-ET; read-out: IGROV-ET GI50): 114 nM | LNCAP TGI (LNCaP): 4.05E-09 | GI50 (LNCaP; read-out: LNCAP GI50): 2.74 nM | CC50 (LNCaP; read-out: LNCAP LC50): 5.99 nM | IGROV TGI (IGROV-1): 6.27E-09 | GI50 (IGROV-1; read-out: IGROV GI50): 2.38 nM | CC50 (IGROV-1; read-out: IGROV LC50): 53.9 nM | DU-145 TGI (DU-145): 8.52E-09 | GI50 (DU-145; read-out: DU-145 GI50): 3.21 nM | TGI A-549 (A-549 [3]; A-549): 1.99E-08 | GI50 (A-549 [3]; A-549, read-out: GI50 A-549): 9.59 nM | LC50 (concentration for 50% cell killing) (A-549 [3]; read-out: A-549 LC50, A-549): 41.1 nM | Toxicity Data Kidney (Kidney): 2.59E-07 | PANC-1 TGI (PANC-1): 3.24E-08 | GI50 (PANC-1; read-out: PANC-1 GI50): 5.42 nM | LC50 (concentration for 50% net cell kill) (PANC-1; read-out: PANC-1 LC50): 4900 nM | Toxicity Data Heart (Heart): 8.19E-07 | SK-BR3 TGI (SK-BR-3): 1.70E-08 | GI50 (SK-BR-3; read-out: SK-BR3 GI50): 4.31 nM | CC50 (SK-BR-3; read-out: SK-BR3 LC50): 63.3 nM | Toxicity Data Liver (Liver): 5.88E-08 | LOVO TGI (LoVo): 2.83E-08 | GI50 (LoVo; read-out: LOVO GI50): 10.7 nM | LC50 (concentration for 50% cell killing) (LoVo; read-out: LOVO LC50): 74.3 nM | HMEC-1 TGI (HMEC1): 2.35E-07 | GI50 (HMEC1; read-out: HMEC-1 GI50): 28.3 nM | SK-OV3 TGI (SK-OV-3): 6.27E-08 | GI50 (SK-OV-3; read-out: SK-OV3 GI50): 3.79 nM | MEL-28 TGI (SK-MEL-28): 4.48E-09 | GI50 (SK-MEL-28; read-out: MEL-28 GI50): 2.15 nM | CC50 (SK-MEL-28; read-out: MEL-28 LC50): 16.9 nM | HT-29 TGI (HT-29 [4]): 1.10E-07 | GI50 (HT-29 [4]): 17.1 nM | LOVO-DOX TGI (LoVo-Dox): 8.77E-07 | GI50 (LoVo-Dox; read-out: LOVO-DOX GI50): 88.5 nM | Toxicity Data Skeletal (Skeletal): 1.96E-08 | K-562 TGI (K-562): 2.56E-09 | GI50 (K-562; read-out: K-562 GI50): 1.24 nM | LC50 (50% cell killing) (K-562; read-out: K-562 LC50): 7.5 nM

C=COC(=O)Oc1cc2c(cc1OC)[C@@]1(CS[C@@H]3c4c(OC(C)=O)c(C)c5c(c4[C@H](COC1=O)N1C3[C@H]3c4c(cc(C)c(OC)c4OC(=O)OC=C)C[C@@H]([C@@H]1O)N3C)OCO5)NCC2 (some centres unmarked) [Compound 92]
A-549 TGI (A-549 [3]; A-549): 7.77E-09 | GI50 (A-549 [3]; [5]): 3.33 nM | LC50 (concentration for 50% cell killing) (A-549 [3]; [6]): 33.3 nM | Toxicity Data Kidney (Kidney): 1.35E-08 | Toxicity Data Heart (Heart): 2.80E-08 | Toxicity Data Liver (Liver): 2.30E-08 | Toxicity Data Myelo (Myelo): 1.92E-08 | HT-29 TGI (HT-29 [4]): 1.11E-09 | GI50 (HT-29 [4]; Homo sapiens, HT-29, 48 h): 1.11 nM | LC50 (concentration for 50% cell killing) (HT-29 [4]; Homo sapiens, HT-29, 48 h): 55.5 nM | Toxicity Data Skeletal (Skeletal): 1.21E-08

C=COC(=O)Oc1cc2c(cc1OC)[C@@]1(CS[C@@H]3c4c(OC(C)=O)c(C)c5c(c4[C@H](COC1=O)N1C3[C@H]3c4c(cc(C)c(OC)c4OC(=O)OC=C)C[C@@H]([C@@H]1O)N3C)OCO5)N(C(=O)OC=C)CC2 (some centres unmarked) [Compound 99]
A-549 TGI (A-549 [3]; A-549): 9.96E-08 | GI50 (A-549 [3]; [5]): 43.5 nM | LC50 (concentration for 50% cell killing) (A-549 [3]; [6]): 10300 nM | Toxicity Data Kidney (Kidney): 2.56E-08 | Toxicity Data Heart (Heart): 1.13E-07 | Toxicity Data Liver (Liver): 4.80E-08 | Toxicity Data Myelo (Myelo): 1.45E-07 | HT-29 TGI (HT-29 [4]): 1.03E-07 | GI50 (HT-29 [4]; Homo sapiens, HT-29, 48 h): 34.3 nM | LC50 (concentration for 50% cell killing) (HT-29 [4]; Homo sapiens, HT-29, 48 h): 10300 nM | Toxicity Data Skeletal (Skeletal): 9.71E-08

CCCC(=O)Oc1c(C)c2c(c3c1[C@H]1SC[C@]4(NCCc5cc(O)c(OC)cc54)C(=O)OC[C@@H]3N3C1[C@H]1c4c(cc(C)c(OC)c4O)C[C@@H]([C@@H]3O)N1C)OCO2 (some centres unmarked) [Compound 163]
A-549 TGI (A-549 [3]; A-549): 2.53E-09 | GI50 (A-549 [3]; [5]): 0.38 nM | LC50 (concentration for 50% cell killing) (A-549 [3]; [6]): 8.86 nM | Toxicity Data Kidney (Kidney): 6.33E-07 | Toxicity Data Heart (Heart): 4.80E-07 | Toxicity Data Liver (Liver): 9.80E-07 | Toxicity Data Myelo (Myelo): 2.38E-07 | HT-29 TGI (HT-29 [4]): 1.14E-09 | GI50 (HT-29 [4]; Homo sapiens, HT-29, 48 h): 0.38 nM | LC50 (concentration for 50% cell killing) (HT-29 [4]; Homo sapiens, HT-29, 48 h): 3.8 nM | Toxicity Data Skeletal (Skeletal): 2.53E-06

C=CCOC(=O)Oc1c(C)c2c(c3c1[C@H]1SC[C@]4(NCCc5cc(O)c(OC)cc54)C(=O)OC[C@@H]3N3C1[C@H]1c4c(cc(C)c(OC)c4O)C[C@@H]([C@@H]3O)N1C)OCO2 (some centres unmarked) [Compound 165]
A-549 TGI (A-549 [3]; A-549): 3.73E-10 | GI50 (A-549 [3]; [5]): 0.124 nM | LC50 (concentration for 50% cell killing) (A-549 [3]; [6]): 1.24 nM | Toxicity Data Kidney (Kidney): 1.89E-08 | Toxicity Data Heart (Heart): 2.79E-08 | Toxicity Data Liver (Liver): 1.68E-08 | Toxicity Data Myelo (Myelo): 2.87E-08 | HT-29 TGI (HT-29 [4]): 3.73E-10 | GI50 (HT-29 [4]; Homo sapiens, HT-29, 48 h): 0.249 nM | LC50 (concentration for 50% cell killing) (HT-29 [4]; Homo sapiens, HT-29, 48 h): 0.995 nM | Toxicity Data Skeletal (Skeletal): 1.47E-08
